Measurements as given in ChEMBL document CHEMBL6178013, “Ferroptosis of Cancer Cells via Tubulin Degradation and Mitochondrial Dysfunction: A Novel Mechanism of Anticancer Effect for Small-Molecule Anion Transporters” (J Med Chem, 2025).
In brackets after ≈: the same amount, converted by molar mass. Activity calls are given as the source filed them. No cut-off for these calls is given here.

Assays:
Chloride [1] = experiment: Binding affinity to chloride anions assessed as anionophoric activity in egg-yolk L-alpha-phosphatidylcholine liposome model measured per lipid by pyranine-based fluorescent assay
Chloride [2] = experiment: Binding affinity to chloride anions using tetrabutylammonium chloride salt assessed as association constant by 1H NMR spectroscopy
Chloride [3] = experiment: Binding affinity to chloride anions assessed as chloride efflux in egg-yolk L-alpha-phosphatidylcholine liposome model measured per lipid in presence of intravesicular NaCl/extravesicular NaNO3 by chloride ion selective electrode technique
Chloride [4] = experiment: Binding affinity to chloride anions assessed as chloride efflux in egg-yolk L-alpha-phosphatidylcholine liposome model harboring intravesicular LiCl/extravesicular NaNO3
Chloride [5] = experiment: Binding affinity to chloride anions assessed as chloride efflux in egg-yolk L-alpha-phosphatidylcholine liposome model harboring intravesicular CsCl/extravesicular NaNO3
Chloride [6] = experiment: Binding affinity to chloride anions assessed as chloride efflux in egg-yolk L-alpha-phosphatidylcholine liposome model harboring intravesicular NaCl/extravesicular NaNO3
Chloride [7] = experiment: Binding affinity to chloride anions in human HeLa cells assessed as chloride influx up to 5 uM incubated for 2 hrs by MQAE staining based analysis; type: cell-based
Chloride [8] = experiment: Binding affinity to chloride anions in human HeLa cells assessed as increase in chloride influx at 1 uM measured after 15 mins by inverted fluorescence microscopy; type: cell-based
Chloride [9] = experiment: Binding affinity to chloride anions in human HeLa cells assessed as increase in chloride influx at 1 uM measured after 30 to 60 mins by inverted fluorescence microscopy; type: cell-based; settings: time 30-60 min
HepG2 = experiment: Cytotoxicity against human HepG2 cells incubated for 48 hrs by MTT assay; type: functional, cell-based; settings: HepG2, 48 h
HeLa [10] = experiment: Cytotoxicity against human HeLa cells assessed as decrease in ratio of green to red fluorescence at 0.1 to 1 uM incubated for 24 hrs by calcein-AM/7-AAD staining based analysis; type: functional, cell-based; settings: dose 0.1-1 µM
HeLa [11] = experiment: Effect on p53 pathway in human HeLa cells at 10 uM incubated for 48 hrs by KEGG analysis; type: functional, cell-based
HeLa [12] = experiment: Cytotoxicity against human HeLa cells assessed as decrease in cell viability at 0.01 to 10 uM pretreated with DFO followed by compound addition by MTT assay; type: functional, cell-based; settings: dose 0.01-10 µM
HeLa [13] = experiment: Cytotoxicity against human HeLa cells assessed as decrease in cell viability at 0.01 to 10 uM pretreated with Nec-1 followed by compound addition by MTT assay; type: functional, cell-based; settings: dose 0.01-10 µM
[14] = target: Tubulin beta (Homo sapiens) (UniProt P68371+Q9H4B7+Q13509+P04350+Q3ZCM7+P07437+Q13885+Q9BVA1+Q9BUF5+A6NNZ2); experiment: Induction of beta-tubulin degradation in human HeLa cells incubated for 48 hrs by immunoblotting analysis; type: cell-based; settings: dose 0.1-1 µM
HeLa [15] = experiment: Induction of mitochondrial membrane permeability in human HeLa cells assessed as red fluorescence at 0.5 uM incubated for 24 hrs by JC-1 staining based analysis (reference value: 98.5 %); type: functional
HeLa [16] = experiment: Induction of mitochondrial membrane permeability in human HeLa cells assessed as red fluorescence at 1 uM incubated for 24 hrs by JC-1 staining based analysis (reference value: 98.5 %); type: functional
HeLa [17] = experiment: Induction of mitochondrial membrane permeability in human HeLa cells assessed as green fluorescence at 0.5 uM incubated for 24 hrs by JC-1 staining based analysis (reference value: 1.5 %); type: functional
HeLa [18] = experiment: Induction of lipid peroxidation in human HeLa cells assessed as increase in Fe2+ level incubated for 12 hrs by absorbance based assay; type: functional, cell-based; settings: dose 0.1-1 µM
HeLa [19] = experiment: Induction of lipid peroxidation in human HeLa cells assessed as increase in MDA level incubated for 12 hrs by absorbance based assay; type: functional, cell-based; settings: dose 0.1-1 µM
HeLa [20] = experiment: Induction of ferroptosis in human HeLa cells assessed as increase in Bad level at 0.1 to 1 uM incubated for 24 hrs by immunoblotting analysis; type: functional, cell-based; settings: dose 0.1-1 µM
HeLa [21] = experiment: Induction of ferroptosis in human HeLa cells assessed as increase in caspase-3 activation at 0.1 to 1 uM incubated for 24 hrs by immunoblotting analysis; type: functional, cell-based; settings: dose 0.1-1 µM
HeLa [22] = experiment: Induction of ferroptosis in human HeLa cells assessed as increase in PARP-1 cleavage at 0.1 to 1 uM incubated for 24 hrs by immunoblotting analysis; type: functional, cell-based; settings: dose 0.1-1 µM
HeLa [23] = experiment: Induction of cell cycle arrest in human HeLa cells assessed as accumulation of cells at S phase at 0.1 uM incubated for 24 hrs by PI staining based flow cytometry relative to control; type: functional
HeLa [24] = experiment: Induction of cell cycle arrest in human HeLa cells assessed as accumulation of cells at S phase at 0.5 uM incubated for 24 hrs by PI staining based flow cytometry relative to control; type: functional
[25] = Aqueous solubility of compound; type: physicochemical
[26] = AUC (0 to t) in male CD-1 mouse at 1 mg/kg, iv measured for 0.083 to 48 hrs by HPLC/MS/MS analysis; type: ADME, organism-based; settings: in vivo, time 0.083-48 hrs
[27] = MRT (0 to t) in male CD-1 mouse at 1 mg/kg, iv measured for 0.083 to 48 hrs by HPLC/MS/MS analysis; type: ADME, organism-based; settings: in vivo, time 0.083-48 hrs
[28] = AUC (0 to t) in male CD-1 mouse at 1 mg/kg, ip measured for 0.083 to 48 hrs by HPLC/MS/MS analysis; type: ADME, organism-based; settings: in vivo, time 0.083-48 hrs
[29] = Tmax in male CD-1 mouse at 1 mg/kg, ip measured for 0.083 to 48 hrs by HPLC/MS/MS analysis; type: ADME, organism-based; settings: in vivo, time 0.083-48 hrs
HeLa [30] = experiment: Antitumor activity against human HeLa cells xenografted in male Balb/C nude mouse assessed as average tumor size at 20 mg/kg, ip administered on every 2 days measured after 18 days (reference value: 1995.1 mm3); type: functional; settings: time 18 day
HeLa [31] = experiment: Antitumor activity against human HeLa cells xenografted in male Balb/C nude mouse assessed as reduction in tumor weight at 10 mg/kg, ip administered on every 2 days measured after 18 days relative to control; type: functional; set-up: scale not given: the % may be the effect or the level left; settings: time 18 day
HeLa [32] = experiment: Antitumor activity against human HeLa cells xenografted in male Balb/C nude mouse assessed as reduction in tumor weight at 20 mg/kg, ip administered on every 2 days measured after 18 days relative to control; type: functional; set-up: scale not given: the % may be the effect or the level left; settings: time 18 day
[33] = Toxicity in male Balb/C nude mouse xenografted with human HeLa cells assessed as body weight change at 20 mg/kg, ip administered on every 2 days measured after 18 days; type: organism-based; settings: in vivo, 432 h, time 18 day
HeLa [34] = experiment: Antitumor activity against human HeLa cells xenografted in male Balb/C nude mouse assessed as decrease in beta III-tubulin level at 10 to 20 mg/kg, ip administered on every 2 days measured after 18 days by immunoblotting analysis; type: functional, organism-based; settings: dose 10-20 mg/kg, time 18.0 day
[35] = Toxicity in male Balb/C nude mouse xenografted with human HeLa cells assessed as abnormalities in lung at 10 to 20 mg/kg, ip administered on every 2 days measured after 18 days by H and E staining based analysis; type: organism-based; settings: in vivo, 432 h, dose 10-20 mg/kg, time 18 day
[36] = Drug concentration in brain of C57BL/6 mouse at 5 mg/kg, iv measured after 4 hrs by HPLC/MS/MS analysis; type: ADME, organism-based; settings: read-out: Ct

EC50 (Chloride [1]): 4.16 10^-2mol%
Ka (Chloride [2]): 1.48 10^3/M
EC50 (Chloride [3]): 0.64 mol%
Activity (Chloride [4]): Active
Activity (Chloride [5]): Active
Activity (Chloride [6]): Active
Activity [14]: Dose-dependent-effect
solubility [25]: 200 µg/mL (≈ 333 µM)
AUC(0-t) [26]: 17500 ng·h/mL
MRT last [27]: 2.64 h
AUC(0-t) [28]: 3850 ng·h/mL
Tmax [29]: 3.5 h
concentration at 4 h [36]: 1300 nM
Compound: Fc1cc(-c2nc3c(C(F)(F)F)cc(C(F)(F)F)cc3[nH]2)cc(-c2nc3c(C(F)(F)F)cc(C(F)(F)F)cc3[nH]2)c1
Activity (Chloride [7]): Active
Activity (Chloride [8]): inactive
Activity (Chloride [9]): Active
IC50 (HepG2): 2470 nM
Activity (HeLa [10]): Active
Activity (HeLa [11]): Active
Activity (HeLa [12]): inactive
Activity (HeLa [13]): Active
Activity (HeLa [15]): 55.1%
Activity (HeLa [16]): 33.2%
Activity (HeLa [17]): 44.9%
Activity (HeLa [18]): Dose-dependent-effect
Activity (HeLa [19]): Dose-dependent-effect
Activity (HeLa [20]): Active
Activity (HeLa [21]): Active
Activity (HeLa [22]): Active
Activity (HeLa [23]): 22%
Activity (HeLa [24]): 36%
Activity (HeLa [30]): 626.1 mm3
Activity (HeLa [31]): 57%
Activity (HeLa [32]): 69%
Activity [33]: Non-toxic
Activity (HeLa [34]): Active
Activity [35]: Non-toxic
